Experimental data published in PMC12316928, “Synthesis and evaluation of novel thiohydantoin derivatives for antidiabetic activity using in silico in vitro and in vivo methods” (Scientific Reports, 2025).
Where “and” joins values, the source holds several entries; their conditions need not be identical. Identical values can stand only once. Entries after “also recorded” stand apart in the source; their conditions may differ.

Assays:
[1] = system: STZ-induced diabetic rats; assay: Effect on FBG, body weight and HbA1C over 6 weeks; format: in vivo, Sprague Dawley rats; set-up: % Reduction in FBG: concentration or dose not given beside the values
Protocol: (§1) Diabetes will be induced in rats (n = 6 per group) by a single intraperitoneal injection of 60-100 mg/kg body weight (BW) streptozotocin dissolved in normal saline. After 5 days of streptozotocin injection, the tail vein blood will be collected to determine the fasting blood glucose (FBG) level. Only rats with FBG over 200 mg/dl will be considered diabetic and used for further experimentation.
Diabetic Rats (n = 6 per group) will be randomly assigned to groups of six animals each in order to examine the impact of synthetic derivatives on FBG level, BW, and HbA1C. The course of treatment will last for six weeks. At the beginning of the experiment and at weekly intervals during the first 42 days of therapy, the FBG level and BW will be measured. Rats will be denied food for 12 h while fasting, but they will have unrestricted access to water. Commercial glucose oxidase kits will be used to measure the blood glucose level. Blood 7 will be collected through cardiac puncture at the end of study period and levels of HbA1C will be determined. Metformin will be used as standard for comparison purpose.

[2] = Cytotoxicity MTT assay; format: cell-based; settings: mouse, 3T3 fibroblast cells, 48 h, Mean ± SD, n = 3, read-out: IC₅₀ cytotoxicity MTT
Protocol: (§2) The cytotoxic effects of the selected compounds were evaluated against the 3T3 fibroblast cell line (Sigma-Aldrich, product no. 90020107) using the MTT (3-(4,5-dimethylthiazol-2-yl)−2,5-diphenyl tetrazolium bromide) assay, following the protocol established by Mosmann[38]. A cell suspension containing 1 × 10⁵ cells per well was seeded into a 96-well plate and incubated at 37 °C with 5% CO₂ for 48 h. The cells were then treated with different concentrations of test compounds (4, 16, 63, 250, and 1000 µg/mL, dissolved in DMSO) and incubated for an additional 48 h. Following incubation, 180 µL of MTT solution (5 mg/mL in PBS) was added to each well and incubated for 4 h. The formazan crystals formed were solubilized, and absorbance was measured at 570 nm using an ELISA reader. Celecoxib was used as a positive control.

[3] = system: 3T3 fibroblast cell line; assay: Cytotoxicity MTT assay; format: cell-based
Protocol: as §2

[4] = molecular target: T1, α-glucosidase (EC3.2.1.20) (Saccharomyces cerevisiae, UniProt P53341); assay: α-Glucosidase inhibitory activity assay; format: biochemical; settings: read-out: %Inhibition (200 µg/ml) alpha glucosidase
T1 construct: purchased Sigma-Aldrich
T1 sequence (P53341 whole entry): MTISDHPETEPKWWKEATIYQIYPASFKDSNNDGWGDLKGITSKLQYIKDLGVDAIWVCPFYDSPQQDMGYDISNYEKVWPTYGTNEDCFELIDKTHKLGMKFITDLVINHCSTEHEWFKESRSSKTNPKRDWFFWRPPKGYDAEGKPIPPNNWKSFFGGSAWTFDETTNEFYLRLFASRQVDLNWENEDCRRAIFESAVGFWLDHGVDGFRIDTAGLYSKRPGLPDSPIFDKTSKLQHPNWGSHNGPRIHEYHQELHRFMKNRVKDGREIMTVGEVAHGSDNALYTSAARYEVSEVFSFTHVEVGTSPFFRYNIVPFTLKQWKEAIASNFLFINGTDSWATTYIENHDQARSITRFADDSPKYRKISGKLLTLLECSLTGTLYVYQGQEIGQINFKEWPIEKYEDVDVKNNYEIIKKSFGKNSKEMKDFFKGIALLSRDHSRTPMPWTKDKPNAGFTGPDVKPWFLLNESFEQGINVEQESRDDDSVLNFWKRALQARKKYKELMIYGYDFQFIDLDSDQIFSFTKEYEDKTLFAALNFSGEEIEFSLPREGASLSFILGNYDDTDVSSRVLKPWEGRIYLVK
Protocol: The ability of the synthesized compounds to inhibit α-glucosidase was determined as per the method described by[35]. […] After incubation at 37 °C for 10 min, the reaction was initiated by adding 25 µL of substrate (4 mM) and further incubating at 37 °C for 20 min. The absorbance was measured at 405 nm.

[5] = system: STZ-induced diabetic rats; assay: Physiological parameters (lipid profile); format: in vivo, Sprague Dawley rats; settings: Fig. 1
Protocol: as §1
Animals will be sacrificed after […] of treatment and parameters including LDL, triglycerides, HDL cholesterol, and glucose will be determined by using KONELAB SYSTEM (Thermo Fisher Scientific, Finland) according to manufacturer’s guidelines.

[6] = system: STZ-induced diabetic rats; assay: Fasting blood glucose and oral glucose tolerance test (OGTT); format: in vivo, Sprague Dawley rats
Protocol: […] After 5 days of streptozotocin injection, the tail vein blood will be collected to determine the fasting blood glucose (FBG) level. Only rats with FBG over 200 mg/dl will be considered diabetic and used for further experimentation.
This assay will be performed in animals after fasting for an overnight (12 h). Then, rats will receive a bolus of glucose (2.0 g/kg body weight) followed by test molecule or control and plasma glucose will be measured from blood collected from tail vein at 0, 30, 60, 90 and 120 min after glucose administration. Plasma glucose levels will be analyzed using commercially available glucometer kits[40].

[7] = molecular target: T2, α-amylase (Sus scrofa, UniProt P00690); assay: α-Amylase inhibitory activity assay (DNSA method); format: biochemical
T2 sequence (P00690 16-511): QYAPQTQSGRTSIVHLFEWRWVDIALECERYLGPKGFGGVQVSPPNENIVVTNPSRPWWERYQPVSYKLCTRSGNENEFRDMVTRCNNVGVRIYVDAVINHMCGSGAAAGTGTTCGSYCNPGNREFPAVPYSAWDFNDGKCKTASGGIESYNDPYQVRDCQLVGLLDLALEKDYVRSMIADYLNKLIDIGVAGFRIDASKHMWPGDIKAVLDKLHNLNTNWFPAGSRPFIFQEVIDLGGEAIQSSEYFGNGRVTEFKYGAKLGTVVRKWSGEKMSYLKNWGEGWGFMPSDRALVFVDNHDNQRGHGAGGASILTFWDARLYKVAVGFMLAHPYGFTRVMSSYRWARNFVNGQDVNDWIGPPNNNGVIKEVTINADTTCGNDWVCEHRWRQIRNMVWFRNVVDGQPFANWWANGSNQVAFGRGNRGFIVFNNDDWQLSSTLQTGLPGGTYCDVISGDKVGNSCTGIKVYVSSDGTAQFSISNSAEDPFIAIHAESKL
Protocol: The inhibitory potential of the synthesized derivatives against α-amylase was determined using the DNSA (3,5-dinitrosalicylic acid) colorimetric method, as reported by Bernfeld[37]. The α-amylase enzyme (from Sigma-Aldrich) was prepared in 20 mM sodium phosphate buffer (pH 6.9). […] After incubation, 100 µL of DNSA reagent was added, and the mixture was heated at 85 °C for 15 min. The reaction was stopped by cooling, and the absorbance was measured at 595 nm. A blank control was prepared to adjust background absorbance, and the percentage inhibition was calculated.

[8] = DPPH free radical scavenging assay
Protocol: The antioxidant activity of synthesized compounds was evaluated using the DPPH free-radical scavenging assay, following the methodology outlined by[34]. This assay is based on the principle that the stable free radical DPPH undergoes a color change from deep purple to yellow upon reduction, indicating hydrogen donation from antioxidant compounds. Different concentrations (3.12, 6.25, 12.5, 25, 50, 100, and 200 µg/mL) of test compounds were prepared in methanol. A 200 µL aliquot of each concentration was mixed with 50 µL of freshly prepared DPPH solution (0.659 mM). The reaction mixtures were incubated at room temperature for 20 min in the dark. Absorbance was recorded at 510 nm using an ELISA microplate reader. Trolox was employed as the reference antioxidant, and the percentage of inhibition was calculated using the following equation:
% Inhibition = [(A0 − A1)/A0] × 100.
Where A0 is the absorbance of the control, and A1 is the absorbance of the sample[34].

CC(=O)Nc1ccc(S(=O)(=O)N2CC(=O)NC2=S)cc1 [FP1, N-[4-(4-oxo-2-sulfanylideneimidazolidine-1-sulfonyl)phenyl]acetamide]
BW (Day 0) ([1]; Day 0, baseline): 217.5 ± 8.3 g
FBG (Day 0) ([1]; Day 0, baseline): 282.8 ± 10.3 mg/dL
% Change in BW ([1]; Day 0 to Day 42): −8.7%
% Reduction in FBG ([1]; Day 0 to Day 42): 17.6%
BW (Day 42) ([1]; Day 42 of treatment): 198.6 ± 7.8 g
FBG (Day 42) ([1]; Day 42 of treatment): 232.9 ± 9.7 mg/dL
HbA1C ([1]; end of 6-week treatment): 8.1% and 8.1 ± 0.4%
IC50 at 48 h [2]: > 900 µg/mL
Cytotoxicity category [3]: negligible cytotoxicity; also recorded: Non-toxic
IC₅₀ cytotoxicity MTT ([3]; 48 h, Mean ± SD, n = 3): > 1000 ± 0.0 µg/mL
inhibition at 200 µg/mL [4]: 45.7 ± 1.12%
lipid profile effect in words [5]: marginal effects
OGTT (after 120 min) ([6]; 120 min after glucose 2.0 g/kg): 310.3 ± 10.7 mg/dL
Fasting blood glucose ([6]; Table 7, mean ± SD, 5 rats per group): 245.9 ± 8.2 mg/dL
FBG and OGTT reduction in words ([6]; compared to diabetic control): mild but significant activity
alpha-amylase inhibition in words [7]: lack of inhibition
IC₅₀ (concentration required to inhibit 50% of DPPH free radicals) [8]: 76.5 ± 2.9 µg/mL
DPPH free radical scavenging % inhibition ([8]; 3.12 µg/mL): 12.5 ± 1.1%
DPPH free radical scavenging % inhibition ([8]; 6.25 µg/mL): 24.7 ± 1.8%
DPPH free radical scavenging % inhibition ([8]; 12.5 µg/mL): 38.1 ± 2.3%
DPPH free radical scavenging % inhibition ([8]; 25 µg/mL): 51.5 ± 2.7%
DPPH free radical scavenging % inhibition ([8]; 50 µg/mL): 58.9 ± 2.9%
DPPH free radical scavenging % inhibition ([8]; 100 µg/mL): 63.4 ± 3.0%
DPPH free radical scavenging % inhibition ([8]; 200 µg/mL): 67.3 ± 3.2%
